Measured values: patent US11141403B2, “Benzimidazoles and indoles as taro inhibitors” (MERCK SHARP & DOHME CORP., priority 2015, dated 2021)
Where two headings read alike, the source gives them in different places.

Tested on: MRSA COL (MB5393)
Assay: TarO Inhibitor/β-Lactam Synergy Assay
Assay type: cell-based, Staphylococcus aureus
Settings: 20 hours; for IC95: TarO inhibitor alone, OD600, 95% growth inhibition, read-out: MITC95 TarO inhibitor alone, Bacteria: SA_MB5393; for MITC95 TarO inhibitor + 4 μg/mL IPM; Bacteria: SA_MB5393: in combination with 4 μg/mL imipenem; for MITC95 TarO inhibitor + 4 μg/mL IPM; Bacteria: SA_MB5393 / MITC95 TarO inhibitor + 8 μg/mL DCX; Bacteria: SA_MB5393: OD600; for MITC95 TarO inhibitor + 8 μg/mL DCX; Bacteria: SA_MB5393: in combination with 8 μg/mL dicloxacillin
Description: The TarO inhibitor/β-lactam synergy assay was performed to measure the re-sensitization of methicillin-resistant Staphylococci bacteria (MB5393: MRSA COL) to β-lactam antibiotics by TarO inhibitors. MRSA COL is a hospital-acquired penicillinase-negative clinically isolated strain commonly used in Staphylococcus aureus studies and is fully resistant to the antimicrobial bioactivity of β-lactam antibiotics, including but not limited to imipenem and dicloxacillin. […] MRSA COL is fully refractory to β-lactam antibiotic effect at the current clinical breakpoint concentrations and as such MRSA COL is fully viable at these concentrations.
The β-lactam antibiotic concentration was fixed at the clinical breakpoint (imipenem 4 μg/ml or dicloxacillin 8 μg/ml) and the TarO inhibitors were titrated by 2 fold starting from the highest concentration of 200 μM with final DMSO concentration of 2% in the assay. 5×10^5 colony forming unit of MRSA COL in cation-adjusted Mueller Hinton broth (CAMHB) was then mixed and the assay plate was incubated for 20 hours at 37° C. without shaking. After 20 hours, the optical density at 600 nm (OD600) was read for all wells to determine relative growth of MRSA COL.

SMILES | IC95 (Staphylococcus aureus) [µM] | MITC95 TarO inhibitor + 4 μg/mL IPM; Bacteria: SA_MB5393 [µM] | MITC95 TarO inhibitor + 8 μg/mL DCX; Bacteria: SA_MB5393 [µM] | IC95 [µM]
CCN(C(=O)CCn1c2cccc(N3CCOCC3)c2nc1[C@H]1CC[C@H](CC)CC1)C1CCCCC1 [Example 32, N-cyclohexyl-N-ethyl-3-[2-(trans-4-ethylcyclohexyl)-4-morpholin-4-yl-1H-benzimidazol-1-yl]propanamide] | > 200 | 20.83 | 20.83 | 
CCN(C(=O)CCn1c(N2CCC(C(F)F)CC2)nc2ccccc21)C1CCCCC1 [Example 56, N-cyclohexyl-3-{2-[4-(difluoromethyl)piperidin-1-yl]-1H-benzimidazol-1-yl}-N-ethylpropanamide] | > 200 | 1.17 | 4.69 | 
CCN(C(=O)CCn1c(C2CCCN(C(=O)OC(C)(C)C)C2)nc2cc(F)ccc21)C1CCCCC1 (centres unmarked) [Example 15, tert-butyl 3-(1-{3-[cyclohexyl(ethyl)amino]-3-oxopropyl}-5-fluoro-1H-benzimidazol-2-yl)piperidine-1-carboxylate] |  | 0.52 | 4.17 | >200
CCN(C(=O)CCn1c2cc(-c3ccccc3)ccc2nc1[C@H]1CC[C@H](CC)CC1)C1CCCCC1 [Example 24, N-cyclohexyl-N-ethyl-3-(2-(trans-4-ethylcyclohexyl)-6-phenyl-1H-benzo[d]imidazol-1-yl)propanamide] | > 200 | 0.04 | 0.46 | 
CCN(C(=O)CCn1c(C2CCC(C)N(c3cccc(OC)n3)C2)nc2ccccc21)C1CCCCC1 (centres unmarked) [Example 44, N-cyclohexyl-N-ethyl-3-{2-[1-(6-methoxypyridin-2-yl)-6-methylpiperidin-3-yl]-1H-benzimidazol-1-yl}propanamide] | 100 | 0.10 | 0.20 | 
CCN(C(=O)CCn1c2ccc(C(F)(F)F)cc2nc1[C@H]1CC[C@H](CC)CC1)C1CCCCC1 [Example 7, N-cyclohexyl-N-ethyl-3-[2-(trans-4-ethylcyclohexyl)-5-(trifluoromethyl)-1H-benzimidazol-1-yl]propanamide] | > 200 | 0.20 | 0.20 | 
CCN(C(=O)CCn1c(N2CCC(C)CC2)nc2ccccc21)C1CCCCC1 [Example 57, N-cyclohexyl-N-ethyl-3-[2-(4-methylpiperidin-1-yl)-1H-benzimidazol-1-yl]propanamide] | > 200 | 1.30 | 26 | 
CCN(C(=O)CCn1c(C2CCN(C(=O)OC(C)(C)C)C2)nc2cc(F)ccc21)C1CCCCC1 (centres unmarked) [Example 21, tert-butyl 3-(1-{3-[cyclohexyl(ethyl)amino]-3-oxopropyl}-5-fluoro-1H-benzimidazol-2-yl)pyrrolidine-1-carboxylate] | > 200 | 0.78 | 13.54 | 
CCN(C(=O)CCn1c(N2CCC(F)(F)CC2)nc2ccccc21)C1CCCCC1 [Example 55, N-cyclohexyl-3-(2-(4,4-difluoropiperidin-1-yl)-1H-benzo[d]imidazol-1-yl)-N-ethylpropanamide] | > 200 | 1.37 | 7.81 | 
CCN(C(=O)CCn1c(C2CCCN(c3nccc(C)n3)C2)nc2ccccc21)C1CCCCC1 (centres unmarked) [Example 52, N-cyclohexyl-N-ethyl-3-{2-[1-(4-methylpyrimidin-2-yl)piperidin-3-yl]-1H-benzimidazol-1-yl}propanamide] | 100 | 1.56 | 6.25 | 
CCN(C(=O)CCn1c2cc(-c3cnn(C)c3)ccc2nc1[C@H]1CC[C@H](CC)CC1)C1CCCCC1 [Example 25, N-cyclohexyl-N-ethyl-3-[2-(trans-4-ethylcyclohexyl)-6-(1-methyl-1H-pyrazol-4-yl)-1H-benzimidazol-1-yl]propanamide] | > 200 | 0.38 | 1.30 | 
CCOC(=O)N1CCCC(c2nc3cc(F)ccc3n2CCC(=O)N(CC)C2CCCCC2)C1 (centres unmarked) [Example 13, Ethyl 3-(1-{3-[cyclohexyl(ethyl)amino]-3-oxopropyl}-5-fluoro-1H-benzimidazol-2-yl)piperidine-1-carboxylate] | > 200 | 0.35 | 2.19 | 
CCCOC(=O)N1CCCC(c2nc3ccccc3n2CCC(=O)N(CC)C2CCCCC2)C1 (centres unmarked) [Example 51, Propyl 3-(1-{3-[cyclohexyl(ethyl)amino]-3-oxopropyl}-1H-benzimidazol-2-yl)piperidine-1-carboxylate] | 100 | 0.39 | 3.13 | 
CCN(C(=O)CCn1c(C2CCCCC2)cc2ccccc21)C1CCCCC1 [Example 64, N-cyclohexyl-3-(2-cyclohexyl-1H-indol-1-yl)-N-ethylpropanamide] | > 200 | 6.20 |  | 
CCN(C(=O)CCn1c(-c2ccc(C(=O)OC)cc2)nc2ccccc21)C1CCCCC1 [Example 36, methyl 4-(1-{3-[cyclohexyl(ethyl)amino]-3-oxopropyl}-1H-benzimidazol-2-yl)benzoate] | > 200 | 0.68 | 3.91 | 
CCN(C(=O)CCn1c(C2CCCN(c3nccc(OC)n3)C2)nc2ccccc21)C1CCCCC1 (centres unmarked) [Example 43, N-cyclohexyl-N-ethyl-3-(2-(1-(4-methoxypyrimidin-2-yl)piperidin-3-yl)-1H-benzo[d]imidazol-1-yl)propanamide] | 100 | 0.20 | 0.78 | 
CC(C)(C)OC(=O)N1CCC(c2nc3ccccc3n2CCC(=O)NC2C[C@H]3CC[C@]2(C)C3(C)C)C1 (stereo partly drawn) [Example 41, tert-butyl 3-[1-(3-oxo-3-{[(1R,4R)-1,7,7-trimethylbicyclo[2.2.1]hept-2-yl]amino}propyl)-1H-benzimidazol-2-yl]pyrrolidine-1-carboxylate] | > 200 | 5.47 | 37.50 | 
CCC1CCN(Cc2nc3ccccc3n2CCC(=O)N(CC)C2CCCCC2)CC1 [Example 62, N-cyclohexyl-N-ethyl-3-{2-[(4-ethylpiperidin-1-yl)methyl]-1H-benzimidazol-1-yl}propanamide] | > 200 | 6.25 | 25 | 
CCN(C(=O)CCn1c2cc(C[C@H]3CCOC3)ccc2nc1[C@H]1CC[C@H](CC)CC1)C1CCCCC1 [Example 28, N-cyclohexyl-N-ethyl-3-{2-(trans-4-ethylcyclohexyl)-6-[(3S)-tetrahydrofuran-3-ylmethyl]-1H-benzimidazol-1-yl}propanamide] | > 200 | 1.30 | 4.17 | 
